Where a SMILES comes first, the peptide text is derived from it. Bridges are numbered along the chain shown (N, C = ends). [ ]: non-standard residue; d: D form. The star is where a group is joined. Trp(1-CH2COOH) = N[C@@H](Cc1cn(CC(=O)O)c2ccccc12)C(=O)O; X1 = O=C(O)CN1CCN(CC(=O)O)CCN(Cc2ccc(NC(=S)*)cc2)CC1; Hyp = O=C(O)[C@@H]1C[C@@H](O)CN1; NMeNle = CCCC[C@H](NC)C(=O)O; NMeA = CN[C@@H](C)C(=O)O
How the values were obtained:
[1] = target: PD-L1 binding to PD-1 (Homo sapiens, UniProt Q9NZQ7); test: competitive PD-1:PD-L1 inhibition assay (HTRF PD1/PD-L1 binding assay)
Method: To modify DK221 for radiolabeling, a bifunctional chelator, e.g., NCS-MP-NODA, was conjugated to the free lysine amine to generate DK222. The NODA chelator was used for radiofluorination to produce [^18F]DK222, as well as a non-radioactive analog [^19F]DK222. (FIG. 1A, FIG. 10 and FIG. 11). A competitive PD-1:PD-L1 inhibition assay was performed to characterize binding affinity of the peptide analogs to PD-L1. […] [^18F]Fluoride-radiolabeling of peptides and small molecules by aluminum fluoride (AlF) method is gaining attention due to the ease of synthesis and the potential to retain the hydrophilicity of the binding moiety. McBride et al., 2010; Kumar et al., 2018. The radiolabeled analog, [^18F]DK222 was synthesized by AlF method in good radiochemical yields (34.85±1.7%, n=62), in vitro stability, and moderate specific activity of 284±56 mCi/μmol (10.51±2.07 GBq/μmol, n=25). […] (FIG. 12, FIG. 13 and FIG. 14).

[2] = test system: PD-L1 levels in melanoma cells; test: effect of IFNγ treatment on PD-L1 levels by flow cytometry; format: cell-based, human
Method: First, the effect of adaptive immune response on the PD-L1 expression in melanoma cells was investigated by assessing changes in PD-L1 levels induced by IFNγ treatment. LOX-IMVI, A375, and MeWO melanoma cells treated with IFNγ were analyzed for changes in PD-L1 levels.
1.3.8 Detection of PD-L1 expression by flow cytometry. Cells were evaluated for PD-L1 surface expression by direct staining of 2×10^5 cells in 100 μL PBS with Cy5-Atezolizumab, for 30 min at 4° C. Cy5-Atezolizumab was prepared as described previously. Kumar et al., 2019. Cells were then washed and analyzed for mean fluorescence intensity (MFI) by flow cytometry. Adherent cells were detached using enzyme-free cell dissociation buffer (Thermo Fisher Scientific, Waltham, Mass.). 1.3.9 In vitro binding assays with [^18F]DK222. In vitro binding of [^18F]DK222 to hPD-L1 MDAMB231, MeWo, A375, Sum149, and CHO cells was determined by incubating 1×10^6 cells with approximately […] of [^18F]DK222 in the presence, or absence, of 1 μM of DK222 or 60 nM mAbs for 30 min at 4° C. After incubation, cells were washed three times with ice cold PBS containing 0.1% Tween20 and counted on an automated gamma counter (1282 Compugamma CS, Pharmacia/LKBNuclear, Inc., Gaithersburg, Md.). […] All cell radioactivity uptake studies were performed in quadruplicate for each cell line and repeated three times.

[3] = test system: LOX-IMVI tumors; test: aPD-L1 mAb dosing studies, accessible PD-L1 levels by [^18F]DK222 uptake; format: in vivo, NSG mice; conditions: for reduction in [^18F]DK222 uptake in tumors vs vehicle: 24 hour before tracer, ex vivo
Method: To confirm the in vitro observations in vivo, NSG mice bearing LOX-IMVI tumors were treated with a single dose of 0.3 or 20 mg/kg of Atezolizumab, administered intravenously as a bolus, 24 hour before [^18F]DK222 injection (FIG. 5B, FIG. 5C and FIG. 5D). […] Importantly, there was a modest reduction in signal intensity when a low 0.3 mg/kg dose of Atezolizumab was used.
The aim of this experiment was to evaluate the potential of [^18F]DK222 to detect the heterogeneity in binding of different mAbs, thus proving in principle that it can be used to guide the choice between the multiple mAbs available for treatment. […] Separate groups of animals were injected with a single 1 mg/kg dose of (only) one of these mAbs, and after either 24 or 96 hours, each group was injected with [^18F]DK222, imaged, or sacrificed and the [^18F]DK222 signal was quantified (FIG. 6A). The difference in lower [^18F]DK222 signal, at 24 hours between any PD-L1 mAb vs Nivolumab constitutes the saturation binding of the PD-L1 mAb. On the other hand, the higher [^18F]DK222 signal at 96 hours versus that at 24 hours represents loss of the mAb from its binding site, making more PD-L1 accessible to [^18F]DK222. The experiment was repeated in two different tumor models: LOXIMVI and MDAMB231.
1.3.17 aPD-L1 mAb dosing studies. To determine the effect of antibody dose on accessible PD-L1 levels in the tumor, LOX-IMVI tumor-bearing mice were treated with a single intravenous bolus dose of Atezolizumab (0.3 or 20 mg/Kg) and 24 hours later mice were used for imaging (n=3-4) and biodistribution (n=6-8) studies.
Anti PD-1 antibody Nivolumab (1 mg/kg) and saline were used as controls. Mice treated for 24 h with therapeutic mAbs, or saline as a control, were injected with 200 μCi of [^18F]DK222 in 200 μL of saline intravenously, and PET images were acquired 1 hour after the injection of the radiotracer. Due to the many number of groups and mice involved, saline and Nivolumab-treated controls were included in every experiment, and data from multiple experiments were pooled. Study was repeated in MDAMB231 tumor-bearing mice with only biodistribution measurements.

[4] = circulating half-life; cited from earlier work
[5] = target: PD-L1 (Homo sapiens, UniProt Q9NZQ7); conditions: cited from earlier work
[6] = test system: hPD-L1/CHO xenografts; conditions: in vivo
[7] = test system: A375 melanoma xenografts; test: aPD-1 mAb dosing study, [^18F]DK222 uptake in A375 tumors; format: in vivo; conditions: huPBMC mice, single dose aPD-1 mAb 12 mg/kg, one week
Method: A humanized mouse model was used to quantify the differences in tumor PD-L1 levels as a measure of adaptive immune response to treatment with different aPD-1 mAbs. NSG mice humanized with PBMCs (huPBMC) bearing A375 melanoma xenografts were treated with a single dose of aPD-1 mAbs (12 mg/kg). Following one week of treatment, tumor PD-L1 levels were measured by [^18F]DK222-PET and by ex vivo counting 24 hours later (FIG. 4A). As controls, tumor-bearing huPBMC mice treated with saline and NSG mice treated with Pembrolizumab and Nivolumab were included.
1.3.14 aPD-1 mAb dosing studies. huPBMC mice acquired from JAX labs were implanted subcutaneously with 2×10^6 A375 cells in the rostral end. Seven days after cell inoculation (average tumor volume=80±15 mm^3), mice were randomized and treated with a single 12 mg/kg dose of Nivolumab or Pembrolizumab injected intravenously (n=9/group). huPBMC mice treated with saline (n=4-5/group). or NSG mice treated with 12 mg/kg dose of Nivolumab or Pembrolizumab were used as controls. Seven days following treatment, [^18F]DK222 PET scans were acquired on at least 3-5 mice per group. […]
1.3.15 Flow cytometry analysis. […] Cells were counted and 1×10^6 cells were resuspended in 100 μL Live/Dead aqua solution (ThermoFisher #L34965, 2 μL reconstituted with 2 mL PBS) in a 96 well plate. […]

Chain of PD-L1 (Q9NZQ7 19-290): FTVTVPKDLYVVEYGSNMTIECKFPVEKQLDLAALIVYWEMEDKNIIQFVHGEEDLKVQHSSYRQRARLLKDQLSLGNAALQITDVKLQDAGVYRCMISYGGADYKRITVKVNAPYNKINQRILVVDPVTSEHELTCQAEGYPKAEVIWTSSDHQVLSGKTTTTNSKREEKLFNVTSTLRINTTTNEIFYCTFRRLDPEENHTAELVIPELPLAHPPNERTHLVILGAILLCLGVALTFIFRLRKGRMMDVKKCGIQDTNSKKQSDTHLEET
Chain of PD-L1 binding to PD-1 (Q9NZQ7 19-238 limits assumed): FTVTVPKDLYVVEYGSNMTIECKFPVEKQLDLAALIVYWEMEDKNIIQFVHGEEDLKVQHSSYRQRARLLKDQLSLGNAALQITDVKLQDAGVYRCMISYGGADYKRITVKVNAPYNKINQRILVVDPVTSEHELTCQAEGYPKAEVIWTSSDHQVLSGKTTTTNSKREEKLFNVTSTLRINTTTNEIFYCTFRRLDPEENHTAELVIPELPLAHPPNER

Question: Which IC50 [1] does the source give for `CCCC[C@H]1C(=O)N(C)[C@@H](CCCC)C(=O)N[C@@H](CCCCNC(=S)Nc2ccc(CN3CCN(CC(=O)O)CCN(CC(=O)O)CC3)cc2)C(=O)N[C@H](C(=O)NCC(N)=O)CSCC(=O)N[C@@H](Cc2ccc(O)cc2)C(=O)N(C)[C@@H](C)C(=O)N[C@@H](CC(N)=O)C(=O)N2CCC[C@H]2C(=O)N[C@@H](Cc2cnc[nH]2)C(=O)N[C@@H](CCC(=O)O)C(=O)N2C[C@H](O)C[C@H]2C(=O)N[C@@H](Cc2c[nH]c3ccccc23)C(=O)N[C@@H](CO)C(=O)N[C@@H](Cc2cn(CC(=O)O)c3ccccc23)C(=O)N1C` [DK222] ({CH2CO}-Y[NMeA]NPHE[Hyp]WS[Trp(1-CH2COOH)][NMeNle][NMeNle]K(X1)CG-NH2; thioether N-14) here?
Answer: 28 nM

Question: What about the “inhibit PD1:PD-L1 interaction” value ([1]; protein-based assay) of the same compound?
Answer: at nanomolar concentrations

Question: Which “increase in PD-L1 levels” value ([2]; A375 cells) does the source give for “IFNγ: cytokine used to treat melanoma cells to induce PD-L1” here?
Answer: four-fold

Question: What about the “increase in PD-L1 levels” value ([2]; LOX-IMVI cells) of the same compound?
Answer: two

Question: What about the “change in PD-L1 levels” value ([2]; MeWo cells) of the same compound?
Answer: No differences

Question: What does the source list for Durvalumab: aPD-L1 mAb?
Answer: accessible PD-L1 levels reduced ([3]; 1 mg/kg mAb, LOX-IMVI tumors, 24 h and 96 h): ≥ 70%; t1/2 [4]: 18 days; Kd [5]: 0.022 nM

Question: What does the source list for Atezolizumab: aPD-L1 mAb, isotype IgG1κ?
Answer: reduction in [^18F]DK222 uptake in tumors vs vehicle ([3]; 0.3 mg/kg single i.v. dose): 32%; reduction in [^18F]DK222 uptake in tumors vs vehicle ([3]; 20 mg/kg single i.v. dose): 89%; t1/2 [4]: 27 days; Kd [5]: 0.4 nM

Question: Which t1/2 [4] does the source give for Avelumab: aPD-L1 mAb, IgG1λ here?
Answer: 6.1 days

Question: Which PET image contrast [6] does the source give for `CCCC[C@H]1C(=O)N(C)[C@@H](CCCC)C(=O)N[C@@H](CCCCNC(=O)c2ccc([18F])nc2)C(=O)N[C@H](C(=O)NCC(N)=O)CSCC(=O)N[C@@H](Cc2ccc(O)cc2)C(=O)N(C)[C@@H](C)C(=O)N[C@@H](CC(N)=O)C(=O)N2CCC[C@H]2C(=O)N[C@@H](Cc2cnc[nH]2)C(=O)N[C@@H](CCC(=O)O)C(=O)N2C[C@H](O)C[C@H]2C(=O)N[C@@H](Cc2c[nH]c3ccccc23)C(=O)N[C@@H](CO)C(=O)N[C@@H](Cc2cn(CC(=O)O)c3ccccc23)C(=O)N1C` [[^18F]DK221-Py] here?
Answer: poor image contrast

Question: For “Pembrolizumab: aPD-1 mAb [reference compound]”, which “increase in median [^18F]DK222 uptake compared to NSG mice” value [7] is on record?
Answer: 85%

Question: Which results are given for “Nivolumab: aPD-1 mAb [reference compound]”?
Answer: mean LOX-IMVI tumor [^18F]DK222 uptake ([3]; 1 mg/kg mAb, 24 hours): approximately 20 % ID/g; increase in median [^18F]DK222 uptake compared to NSG mice [7]: 148%
